# Data: US12622916B2, “Use of H3K9me3 modulation for enhancing cognitive function” (THE REGENTS OF THE UNIVERSITY OF CALIFORNIA, priority 2015, dated 2026)
# Entries after “also recorded” stand apart in the source; their conditions may differ.
# Key:
# [1] = target: DNA methyltransferase DNMT1 (Homo sapiens, UniProt P26358); test: Inhibitory activity towards DNA methyltransferase DNMT1; format: biochemical
# [2] = tested on: aged C57Bl/6J male mice; test: Object location memory (OLM) task in aged mice; format: in vivo; settings: for OLM retention: memory performance (exploration of novel versus familiar location): retention test 24 hours later
# Protocol: Object Location Memory (OLM): Training and testing procedures were performed using a standard OLM protocol. Briefly, 22 aged mice and 18 young mice were handled for about 2-3 minutes per day for 5 days, followed by habituation to the experimental apparatus (white rectangular open field measuring 30×23×21.5 cm) for 5 min per day for 5 consecutive days before training.
# Dose Response in OLM: On the test day mice were given 3 minutes of habituation (in an empty test arena) followed by i.p. injection of ETP69 (10 mg/kg (n=8) or 20 mg/kg (n=7)) or vehicle (n=7). Mice were then given a 3-min acquisition trial (with 2 similar objects placed in the arena opposite each other) 30 minutes after the i.p. injection of drug or vehicle and all animals were then returned to their home cages for a 24 hour inter-trial interval. Twenty-four hours later, a 3-minute retention test was administered, where one object was moved to a novel location and the amount of time the animals spent exploring the novel versus familiar location was recorded in order to evaluate the dose response in the OLM task. Since animals that had received 10 mg/kg performed better than other groups in the OLM task, 10 mg/kg was used for the remainder of the study. This OLM paradigm has previously shown to be subthreshold for learning.
# Acquisition (pre-training) or Consolidation (post-training): In another test, aimed to determine the efficacy of the compound in pre and post training paradigms, the same group of 22 aged animals were retested on the OLM task 3 weeks after the first test. To determine whether the drug impacted acquisition or consolidation mechanisms, mice were injected with the 10 mg/kg compound (i.p. n=7) or vehicle (n=8). Animals were sacrificed right after retention testing (i.e. 24 hours post injection), and hippocampi were removed, rapidly frozen on dry ice, and stored at −80° C. until processing for trimethylation levels and BDNF assay. FIG. 2 is a graphical representation of the effect of the drug at 10 mg/kg and 20 mg/kg (i.p) administered 30 minutes prior to acquisition phase in the novel place position task in mice. […] Data are mean±SEM; n=7 or 8/group.
# [3] = tested on: aged mice; test: Unsupervised learning task (USL) in aged mice; format: in vivo; settings: 10 mg/kg i.p.
# Protocol: Unsupervised learning task: A new group of 12 aged animals were used for the unsupervised learning task. Procedures were adapted from published work. The unsupervised learning (USL) behavioral apparatus consisted of a large open field divided by walls into 4 chambers, all accessible by small entrances in each dividing wall. The animals can also access a smaller attached enclosed dark compartment by an open entrance. After 5 days of handling, animals were injected with ETP69 (10 mg/kg, i.p.) or vehicle and placed in the video-monitored USL box for thirty minutes, and the returned to the home cage. 24 hours later the animals were placed in the USL box again and euthanized immediately after. Their brains were rapidly removed, hippocampus dissected rapidly, frozen on dry ice, and stored at −80° C. until further processing
# To evaluate if H3K9me3 is implicated in measures of spatial learning and to evaluate molecular endpoints, a second series of experiments was conducted with the USL task being the behavioral endpoint. The USL task is a simple behavioral paradigm in which mice are allowed to freely explore a four-compartment environment for a specified period of time. Reduction in overall activity and exploration of the test arena over this time is considered a measure of learning and short-term memory. […]
# [4] = tested on: H3K9me3; test: Histone H3K9 trimethylation level in brain tissue extracts of aged mice; format: in vivo
# [5] = tested on: CA1 pyramidal neurons; test: Spine counts (Golgi staining) on CA1 pyramidal neurons of aged mice; format: in vivo; settings: 10 mg/kg i.p., 24 hours
# Protocol: Spine counts: In another series of experiments 10 aged mice (20-22 months) were injected with ETP69 (10 mg/kg; i.p) or vehicle (i.p) and 24 hours later the animals were euthanized and the brains were separated into two hemispheres. Right hemisphere was used for Golgi staining and the left was processed for flow synaptometry. Staining was conducted according to manufacturer's information (Golgi-Cox, Bioenna).
# Specifically, we counted and classified spines on CA1 pyramidal neurons. Dendrite segments from neurons in CA1 of the hippocampus were imaged by confocal microscopy and a blinded investigator counted and classified dendritic spines according to their morphology. Spines were manually counted and classified as thin, mushroom, or stubby, according to previously described criteria.
# For each animal, at least 3 pyramidal neurons and 200 μm of total dendrite length and 250-500 spines were analyzed (n=5 animals per group). All of the neurons were chosen from the dorsal part of the CA1 hippocampal region (according with it essential role in spatial memory) and were completely stained along basal and apical dendrites. FIG. 10 presents representative images showing effect of ETP69 treatment on spines in the CA1 of the hippocampus.
# [6] = tested on: 14 DIV hippocampal neurons; test: Oxygen-glucose deprivation (OGD)-induced cytotoxicity, LDH assay; format: cell-based; settings: OGD 2 hours, LDH 48 hours after OGD
# Protocol: OGD in 14 DIV hippocampal neurons was induced by an approach similar to that described by Newcomb-Fernandez et al (2001). Normal media was replaced with PBS and culture plates were placed in an airtight chamber. The chamber was flushed with N2 and CO2 for 3 minutes, sealed, and placed in a 37° C. incubator for 2 hours. PBS was replaced with DMEM (serum-free) and cultures were returned to a normoxic environment. Culture medium was collected 48 hours after the cultures had returned to a normal environment. The cytotoxicity was measured by LDH assay (Thermo-Fisher). To calculate % Cytotoxicity, subtract the LDH activity of the Spontaneous LDH, release Control (water-treated) from the chemical-treated sample LDH activity, divide by the total LDH activity [(Maximum LDH Release Control activity)—(Spontaneous LDH Release Control activity)], and multiply by 100:
# Initially we tested the effect of ETP69 on oxygen-glucose deprivation (OGD)-induced cytotoxicity. Mature hippocampal neurons (14 DIV) were treated with OGD for 2 hours in the presence or absence of ETP69. Cytotoxicity was measured by LDH assay 48 hours after OGD. […] FIG. 13 is a graphical illustration of the effect of ETP69 on neuronal survival after oxygen-glucose deprivation (OGD). 14 DIV hippocampal neurons were treated with OGD for 2 hours in the presence or absence of ETP. Cytotoxicity was measured by LDH assay 48 hours after OGD. […]
# Chain of DNA methyltransferase DNMT1 (P26358 whole entry): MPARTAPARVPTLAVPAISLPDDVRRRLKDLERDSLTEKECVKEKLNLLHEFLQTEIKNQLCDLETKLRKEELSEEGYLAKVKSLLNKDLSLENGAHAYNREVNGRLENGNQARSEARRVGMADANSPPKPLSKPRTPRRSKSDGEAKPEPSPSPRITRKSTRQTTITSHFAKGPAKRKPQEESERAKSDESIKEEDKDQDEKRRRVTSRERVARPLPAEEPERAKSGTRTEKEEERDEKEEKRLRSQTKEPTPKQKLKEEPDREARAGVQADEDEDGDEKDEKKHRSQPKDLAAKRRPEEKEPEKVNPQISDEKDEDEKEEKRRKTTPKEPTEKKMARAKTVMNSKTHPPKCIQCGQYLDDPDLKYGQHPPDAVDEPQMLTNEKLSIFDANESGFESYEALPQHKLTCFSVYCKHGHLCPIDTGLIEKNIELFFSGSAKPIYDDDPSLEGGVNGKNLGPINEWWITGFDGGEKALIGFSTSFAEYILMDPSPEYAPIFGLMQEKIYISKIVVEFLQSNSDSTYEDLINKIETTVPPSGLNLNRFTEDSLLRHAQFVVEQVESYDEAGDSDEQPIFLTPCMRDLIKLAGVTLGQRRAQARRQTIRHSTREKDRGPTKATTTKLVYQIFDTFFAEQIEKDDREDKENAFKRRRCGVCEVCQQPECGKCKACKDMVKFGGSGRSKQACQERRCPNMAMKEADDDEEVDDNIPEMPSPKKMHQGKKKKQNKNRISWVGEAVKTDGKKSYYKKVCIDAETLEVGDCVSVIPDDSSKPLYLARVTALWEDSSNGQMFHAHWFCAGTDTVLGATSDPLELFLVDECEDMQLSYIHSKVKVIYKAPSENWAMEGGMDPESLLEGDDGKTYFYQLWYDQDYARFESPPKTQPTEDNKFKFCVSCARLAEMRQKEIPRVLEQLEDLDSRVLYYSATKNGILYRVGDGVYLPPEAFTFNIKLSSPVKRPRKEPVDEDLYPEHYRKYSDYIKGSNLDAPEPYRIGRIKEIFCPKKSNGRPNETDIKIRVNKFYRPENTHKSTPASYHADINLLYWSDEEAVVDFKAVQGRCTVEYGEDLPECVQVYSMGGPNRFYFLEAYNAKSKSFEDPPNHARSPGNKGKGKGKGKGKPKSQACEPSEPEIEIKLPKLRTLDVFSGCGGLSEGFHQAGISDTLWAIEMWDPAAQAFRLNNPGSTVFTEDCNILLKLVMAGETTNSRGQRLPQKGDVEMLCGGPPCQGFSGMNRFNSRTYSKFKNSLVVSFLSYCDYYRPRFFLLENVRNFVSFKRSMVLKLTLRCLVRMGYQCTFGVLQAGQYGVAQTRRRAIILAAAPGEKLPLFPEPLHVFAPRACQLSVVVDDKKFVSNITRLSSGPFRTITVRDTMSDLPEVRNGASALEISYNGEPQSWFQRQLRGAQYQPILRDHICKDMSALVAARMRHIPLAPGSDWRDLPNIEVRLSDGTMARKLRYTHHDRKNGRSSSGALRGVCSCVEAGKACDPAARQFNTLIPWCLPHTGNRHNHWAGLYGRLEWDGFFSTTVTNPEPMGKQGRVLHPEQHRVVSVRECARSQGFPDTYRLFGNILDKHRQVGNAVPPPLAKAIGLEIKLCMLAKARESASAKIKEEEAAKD
structure (smiles),measurement,setting,value
"CN1C(=O)[C@@]23C[C@](C)(C#N)[C@H](c4ccc5c(c4)OCO5)N2C(=O)[C@]1(C)SS3 (racemic) [ETP69, Rac-(3S,6S,7S,8aS)-6-(benzo[d][1,3]dioxol-5-yl)-2,3,7-trimethyl-1,4-dioxohexahydro-6H-3,8a-epidithiopyrrolo[1,2-a]pyrazine-7-carbonitrile]",inhibitory activity towards DNA methyltransferase DNMT1,[1],no inhibitory activity
same,OLM acquisition phase: object exploration (seconds),[2]; 10 mg/kg and 20 mg/kg i.p. 30 minutes before acquisition,no difference in object exploration
same,"OLM acquisition phase, pre/post-trial experiment: group differences",[2]; 10 mg/kg i.p.,no significant group differences
same,OLM retention: memory performance (exploration of novel versus familiar location),"[2]; 10 mg/kg i.p. 30 minutes before acquisition, 10 mg/kg",explored the novel object significantly (measured in seconds) more than the familiar object; also recorded: induced memory improvements
same,"OLM performance, pre-trial administration","[2]; 10 mg/kg i.p. 30 minutes prior to acquisition phase, tested 24 h",improved performance in the OLM task
same,"OLM performance, post-trial administration","[2]; 10 mg/kg i.p. immediately after acquisition, tested 24 h",improved performance in the OLM task
same,OLM acquisition phase: total exploration time,[2]; 20 mg/kg i.p.,decrease in total exploration time
same,OLM retention: memory performance (exploration of novel versus familiar location),"[2]; 20 mg/kg i.p. 30 minutes before acquisition, 20 mg/kg",performed similar to aged controls; also recorded: but not 20 mg/kg induced memory improvements
same,"USL total distance travelled over 30 minutes, Day 1 versus Day 2",[3],significant decrease in total distance travelled
same,"USL habituation/exploration (distance travelled), Day 2 versus Day 1",[3]; 24 hours after treatment,significant decrease in habituation/exploration
same,H3K9me3 levels in hippocampus,"[4]; 10 mg/kg i.p., 24 hours post drug, hippocampal histone extracts",decreases in H3K9me3 levels
same,H3K9me3 levels in cerebellum,"[4]; ETP69-treated versus untreated, cerebellum",no significant difference
same,density of stubby spines,[5]; CA1,significantly higher density
same,density of thin spines,[5]; CA1,significantly higher density
same,numbers of mushroom spines/length of dendrite,[5]; CA1,no difference
same,increase in total number of spines per length of dendrite compared to controls,[5]; CA1 hippocampus,45%
same,OGD-induced cytotoxicity (LDH),[6]; 4 nM,rescued neurons from OGD-induced cytotoxicity
same,OGD-induced cytotoxicity (LDH),[6]; 100 nM,not 100 nM rescued neurons from OGD-induced cytotoxicity
